In publication PMC3857906, “Ligand-Specific Regulation of the Endogenous Mu-Opioid Receptor by Chronic Treatment with Mu-Opioid Peptide Agonists” (BioMed Research International, 2013):
Like-named read-outs stand apart in the source and are kept apart here.

Legend:
[1] = shown previously; cited from earlier work
[2] = Tail-flick (TF) antinociceptive assay after icv peptide administration; type: in vivo, rat; conditions: for treatment duration until behavioral tolerance complete: 10 μg icv twice daily, data not shown
Procedure: For intracerebroventricular (icv) peptide administration, the rats were implanted with a stainless steel Luer cannula (10 mm long) aimed at the right lateral cerebral ventricle under Nembutal (35 mg/kg, intraperitoneally) anesthesia. The stereotaxic coordinates were 0.2 mm posterior, 1.7 mm lateral to the bregma, and 3.7 mm deep from the dural surface, according to the atlas of Pellegrino et al.. Cannulas were secured to the skull with dental cement and acrylate. The experiments were started 5 days after icv cannulation. All icv treatments were delivered to freely moving animals to prevent unspecific effects. Upon conclusion of the experiments, 10 μL of methylene blue was injected into the ventricle of decapitated animals and the position of the cannula was inspected visually. Animals with improper cannula placement were excluded from the final statistical analysis.
(§1) The peptides were dissolved in artificial cerebrospinal fluid (CSF) and injected in a volume of 2 μL. Endomorphins were administered either acutely at the indicated doses (100 pg–20 μg) or chronically at 20 μg for 10 days (twice daily) and tested at the indicated times. Vehicle control groups obtaining CSF were used in all experiments, and no changes were detected in the antinociceptive response of the control group. […] Animals were killed 16 hrs after drug treatments by decapitation immediately followed by subcellular fractionation.
The original method of D'Amour was used to determine analgesia in the rat by measuring the time required to respond to a radiating heat stimulus. A beam light was focused on the tip of the tail, and the latency required for the rat to remove its tail was determined before (baseline) and after drug administration. The animals were tested at the times shown after injection of the peptides. The antinociceptive effect was expressed according to the equation: (TFn − TFo) × 100/TFmax − TFo, where TFo is the tail-flick latency before drug administration, TFn is the value of a repeated corresponding measurement after drug injection, and TFmax indicates the cutoff time which was set at 10 sec in our assays. Statistical analysis of the data of tail-flick antinociceptive test was made by ANOVA. For significant ANOVA values, groups were compared by Tukey's test for multiple comparisons with unequal cell size. A probability level, P < 0.05, was accepted to label significant differences.

[3] = molecular target: T1, mu-opioid receptors (Rattus norvegicus, UniProt P33535); test: [3H]DAMGO homologous displacement binding in rat brain subcellular fractions (SPM, MI) after in vivo treatment; set-up: fresh forebrains of four rats were pooled, gently homogenized; from tissue; host or cells: rat forebrain, synaptic plasma membrane (SPM) and microsomal (MI) fractions, from vehicle- or peptide-treated animals; conditions: chronic treatment, vs vehicle control
Procedure: as §1, with “times.” for “times. Vehicle control groups obtaining CSF were used in all experiments, and no changes were detected in the antinociceptive response of the control group.”
Subcellular fractions of rat brains were purified as published. Briefly, fresh forebrains of four rats were pooled, gently homogenized in 10 volumes (v/w) of ice-cold buffer (5 mM Tris-HCl pH 7.4, 50 μM CaCl2, 0.5 mM dithiothreitol), and supplemented with 10% sucrose. All sucrose solutions were made in the above buffer. The homogenate was spun at 1,000 ×g for 10 min. The resulting pellet was resuspended in the above buffer and spun again. The combined supernatants were spun at 12,000 ×g for 20 min. The pellets were suspended in 10% sucrose and subjected to consecutive centrifugations at 20,000 ×g for 25 min and 14,000 ×g for 20 min twice resulting in crude synaptic plasma membranes (SPM). […]
Filters were rapidly washed with 3 × 5 mL ice-cold 50 mM Tris-HCl (pH 7.4) buffer, air-dried, and counted in a toluene-based scintillation cocktail in a Wallac 1409 scintillation counter (Wallac, Turku, Finland). […]

[4] = molecular target: T2, mu-opioid receptors (coupling to G-proteins) (Rattus norvegicus, UniProt P33535); test: DAMGO-stimulated [35S]GTPγS binding in rat brain subcellular fractions (SPM, MI) after in vivo chronic opioid peptide treatment; type: biochemical; conditions: for effect of chronic treatment on G-protein coupling / [35S]GTPγS incorporation: 10 μg icv twice daily for 8 days
T2 construct: fresh forebrains of four rats were pooled, gently homogenized; from tissue; host or cells: rat forebrain, synaptic plasma membrane (SPM) and microsomal (MI) fractions, from vehicle- or peptide-treated animals
Procedure: The peptides were dissolved in artificial cerebrospinal fluid (CSF) and injected in a volume of 2 μL. […] Animals were killed 16 hrs after drug treatments by decapitation immediately followed by subcellular fractionation.
Subcellular fractions of rat brains were purified as published. Briefly, fresh forebrains of four rats were pooled, gently homogenized in 10 volumes (v/w) of ice-cold buffer (5 mM Tris-HCl pH 7.4, 50 μM CaCl2, 0.5 mM dithiothreitol), and supplemented with 10% sucrose. All sucrose solutions were made in the above buffer. The homogenate was spun at 1,000 ×g for 10 min. The resulting pellet was resuspended in the above buffer and spun again. The combined supernatants were spun at 12,000 ×g for 20 min. The pellets were suspended in 10% sucrose and subjected to consecutive centrifugations at 20,000 ×g for 25 min and 14,000 ×g for 20 min twice resulting in crude synaptic plasma membranes (SPM). The resulting pellets were lysed followed by fractionation on a 10%, 28.5%, and 34% sucrose density step gradient that was spun at 100,000 ×g for 2 h. Highly enriched SPMs were obtained from the 28/34% interface. Crude microsomal (MI) fractions were obtained from the 12,000 ×g supernatant by consecutive centrifugations at 20,000 ×g for 25 min and 100,000 ×g for 1 h. MI fractions were purified on a 10% and 28.5% sucrose step gradient centrifuged at 100,000 ×g for 2 h and collected at 10/28.5% interface. SPM and MI fractions were diluted threefold with 50 mM Tris-HCl buffer and pelleted at 100,000 ×g for 1 h to remove sucrose. The resulting pellets were taken up in 50 mM Tris-HCl (pH 7.4) buffer to yield in 0.3–0.8 mg membrane protein/ml and were freshly used.
(§2) The assay was performed as published with slight modifications. Briefly, rat brain membrane fractions (≈10 μg of protein) were incubated with [^35S]GTPγS (0.05 nM) and 5-6 concentrations (10^−9−10^−4 M) of opioid peptides in the presence of 100 μM GDP in Tris-EGTA (50 mM Tris-HCl, 1 mM EGTA and 5 mM MgCl2; pH 7.4) buffer in a total volume of 1 mL for 60 min at 30°C. Nonspecific binding was determined with 10 μM GTPγS and subtracted. Bound and free [^35S]GTPγS were separated by vacuum filtration through Whatman GF/F filters using a Brandel M24-R Cell Harvester (Brandel, Gaithersburg, MD, USA). Filters were rapidly washed with 3 × 5 mL ice-cold 50 mM Tris-HCl (pH 7.4) buffer, air-dried, and counted in a toluene-based scintillation cocktail in a Wallac 1409 scintillation counter (Wallac, Turku, Finland). All assays were performed in triplicate and repeated at least three times. Curves were constructed and analyzed by fitting sigmoidal dose-response curves using the GraphPad Prism 4 program (GraphPad Prism Software Inc) to obtain potency (EC50, concentration of the ligand to give half-maximal effect) and efficacy (E max, % maximal stimulation over basal activity) values. Basal activities were measured in the absence of opioid ligands and set as 0%. The data reported are means ± S.E.M.

[5] = molecular target: T1, mu-opioid receptors; conditions: icv administration, in situ autoradiography; cited from earlier work
[6] = molecular target: T3, mu-opioid receptors (G-protein activation) (Rattus norvegicus, UniProt P33535); test: Ligand-stimulated [35S]GTPγS functional assay in crude rat brain membranes; type: biochemical
T3 construct: from tissue; host or cells: rat brain without cerebella, crude membranes
Procedure: as §2

T1 sequence (P33535 whole entry): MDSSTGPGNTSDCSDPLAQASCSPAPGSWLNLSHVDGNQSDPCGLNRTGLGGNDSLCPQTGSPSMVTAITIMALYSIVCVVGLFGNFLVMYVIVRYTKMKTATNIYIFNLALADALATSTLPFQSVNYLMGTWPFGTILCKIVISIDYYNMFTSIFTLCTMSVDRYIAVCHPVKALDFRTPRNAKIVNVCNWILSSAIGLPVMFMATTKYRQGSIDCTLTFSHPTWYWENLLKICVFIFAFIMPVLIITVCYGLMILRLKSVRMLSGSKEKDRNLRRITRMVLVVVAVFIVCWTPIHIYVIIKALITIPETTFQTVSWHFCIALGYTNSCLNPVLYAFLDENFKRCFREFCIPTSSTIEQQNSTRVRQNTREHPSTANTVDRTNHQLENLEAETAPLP
T2 sequence (P33535 whole entry): as above
T3 sequence (P33535 whole entry): as above

Tyr-D-Ala-Gly-(NMe)Phe-CH2Cl [DAMCK]
antinociception [1]: about 80% | duration of antinociception [1]: apparently irreversible antinociception | treatment duration until behavioral tolerance complete [2]: ≤ 8 days | increase in the density of mu-sites in the MI (light membrane) fraction [3]: 40% | effect of chronic treatment on G-protein coupling / [35S]GTPγS incorporation [4]: attenuated G-protein coupling in the MI fraction

COC(=O)/C=C/C(=O)N[C@@H]1CC[C@@]2(O)[C@H]3Cc4ccc(O)c5c4[C@@]2(CCN3CC2CC2)[C@H]1O5 [beta-funaltrexamine]
reduction of the density of mu-opioid receptors throughout the brain [5]: 40–50%

C[C@@H](NC(=O)[C@@H](N)Cc1ccc(O)cc1)C(=O)NCC(=O)N(C)[C@@H](Cc1ccccc1)C(=O)NCCO [DAMGO, Tyr-D-Ala-Gly-(NMe)Phe-Gly-ol]
antinociception [1]: about 80% | time of peak antinociceptive effect [1]: about 30 min | treatment duration until behavioral tolerance complete [2]: ≤ 8 days | decrease in the density of surface mu-sites (SPM) [3]: 22% | agonist character in [35S]GTPγS assay [6]: full agonist | effect of chronic treatment on G-protein coupling / [35S]GTPγS incorporation [4]: did not cause any change | Emax ([4]; read-out: E max (% over basal) MI Treated): 72 ± 9% | Emax ([4]; read-out: E max (% over basal) SPM Treated): 130 ± 14% | Emax ([4]; read-out: efficacy (E max) of DAMGO in control MI, MI of vehicle administered rats, % over basal): 85 ± 9% | Emax ([4]; read-out: efficacy (E max) of DAMGO in control SPM, SPM of vehicle administered rats, % over basal): 95 ± 5%

NC(=O)[C@H](Cc1ccccc1)NC(=O)[C@H](Cc1ccccc1)NC(=O)[C@H]1CCCC[C@H]1NC(=O)[C@@H](N)Cc1ccc(O)cc1 [ACHC-EM2, cis-1S,2R-aminocyclohexanecarboxylic acid^2-endomorphin-2]
treatment duration until analgesic tolerance complete (antinociceptive effect ceased) ([2]; 20 μg icv twice daily, rat tail-flick): ≤ 10 days | day by which decrease of antinociceptive effect became statistically significant vs day 1 ([2]; 20 μg icv twice daily, tested 5 and 15 min after injection): ≤ 5 days | time of peak acute antinociceptive effect ([2]; rat tail-flick, after icv injection): 10 to 15 min | time by which acute antinociceptive effect dissipated ([2]; rat tail-flick, following icv injection): ≤ 40 min | increase in analgesic response compared to base-line values ([2]; rat tail-flick, icv, lower doses, concentration-dependent): 20–50%
